Experiment [1] concerns p-chloroamphetamine (pCA) induced hyperactivity. Put plainly: Inhibition of p-chloroamphetamine (pCA) induced hyperactivity in mice. The format is in vivo. The settings on record: Mus musculus, po, female mice, 50 mg/kg po, pCA 20 mg/kg ip, 10-30 minutes post pCA. The procedure:
The following test procedure was used to test for ability to inhibit p-chloroamphetamine induced hyperactivity.
Three groups of 4 female mice (20-24 g) receive the test compounds (50 mg/kg po) and a fourth group the requisite volume of vehicle. Thirty minutes later all the animals are given 20 mg/kg p-chloroamphetamine (pCA) ip. The grouped mice are placed immediately in square plastic cages in activity monitors and their motor activity recorded over the period 10-30 minutes post pCA. This procedure is repeated three more times so that four groups of mice are used per treatment and each activity monitor is used with all treatments in turn. The inhibition of pCA induced hyperactivity is calculated thus: [formula] where C=mean activity of control groups 10-30 minutes post pCA.
T=mean activity of treated groups 10-30 minutes post pCA.
This test is used as an in vivo screen for detection of 5-hydroxytryptamineuptake inhibitors.
Compounds giving >50% inhibition are considered of special interest. In such a test the following compounds were particularly active: […]

For experiment [2], the system named is neuronal uptake of 5-hydroxytryptamine into slices of cerebral cortex. As to the kind of experiment: Inhibition of 5-hydroxytryptamine (5-HT) uptake in brain slices. Conditions: rat cerebral cortex slices, relative to imipramine. It counts as biochemical. The procedure:
Compounds of formula I were tested for ability to inhibit 5-hydroxytryptamine (5-HT) uptake in brain slices using the following procedure:
Concentration-response curves for the test compound and for the standard agent, imipramine, are obtained. The potency of the test compound is expressed in proportion to that of imipramine. Thus, the potency ratio for the test compound [formula]

Experiment [3] deals with 5-hydroxy-L-tryptophan (5-HTP) induced behavioural syndrome. Put plainly: Potentiation of 5-HTP induced behavioural syndrome, dose/response study in mice. It counts as in vivo. Conditions: Mus musculus, po, 5-HTP 80 mg/kg i.p. The procedure:
(§1) Thus, this test can be used as an indication of in vivo 5-HT uptake inhibition.
a) Dose/response study in mice
Groups of 12 (2 subgroups of 6) female mice (18-22g) were used per dose, each group being housed in a separate cage for the duration of the experiment. Mice were dosed p.o. with either test compound or vehicle (0.5% HPMC) and 30 minutes later received a threshold dose of 5-HTP (80 mg/kg i.p.) and were placed in perspex cylinders (12" diameter).
The dose that produced the syndrome in 50% of the mice was calculated using the method of Litchfield and Wilcoxon, […]

Experiment [4] has the same test system. Put plainly: Potentiation of 5-HTP induced behavioural syndrome, dose/response study in rats. The settings on record: Rattus norvegicus, ip, 5-HTP 70 mg/kg i.p. It counts as in vivo. The procedure:
as §1
b) Dose/Response study in rats
Groups of 6 male rats (150 g) were dosed with test compound suspended in HPMC. Thirty minutes later 5-HTP (70 mg/kg 5 i.p.) was given and the number of signs/rat recorded between 20 and 35 minutes post 5-HTP. Linear regression analysis of the results was performed and the ED50 calculated from this.

For experiment [5], the system named is uptake of 5-HT into rat brain synaptosomes. As to the kind of experiment: Inhibition of 5-HT uptake into rat brain synaptosomes. The format is biochemical, male Sprague Dawley rats. The procedure:
(§2) The test procedure involved obtaining synaptosomal preparations from male Sprague Dawley rats according to the method of Grey and Whittaker* as modified by Wood and Wyllie.** Aliquots of the synaptosomal preparation were then incubated with tritrated noradrenaline (NA) or 5-HT at a temperature of 37° C. for 4 minutes. The active synaptosomal accumulation of labelled substrate was measured by filtration and scintillation counting. The effect at a range of concentrations of test compound enabled IC50 values and selectivity ratios to be calculated.
(§3) * Grey and Whittaker,--J. Anat. 96 79 (1962)
(§4) ** Wood and Wyllie, J. Neurochemistry, 37, 795 (1981)

Experiment [6] has as its system uptake of ^3 H noradrenaline into rat brain synaptosomes. Put plainly: Inhibition of 3H noradrenaline uptake into rat brain synaptosomes. The format is biochemical, male Sprague Dawley rats. The settings on record: 37° C., 4 minutes, read-out: IC50 NA uptake. The procedure:
as §2, §3, §4

In experiment [7] the test system is p-chloroamphetamine (pCA)-induced stereotypy. Put plainly: Inhibition of p-chloroamphetamine (pCA)-induced stereotypy in rats. The format is in vivo, male Sprague-Dawley rats. Conditions: for ED50: Rattus norvegicus, po, 90 minutes before pCA 10 mg/kg i.p., results for succinate salt corrected for amount of active material, read-out: ED50 (dose required to produce 50% inhibition of pCA induced stereotypy); for ED50 / antagonism of pCA-induced stereotypy (in words): rats, p.o.; for antagonism of pCA-induced stereotypy (in words): 5 dose levels. The procedure: Representative compounds of formula IA were tested for their ability to inhibit pCA induced syndrome in rats by the standard procedure described below:
Inhibition of p-chloroamphetamine (pCA)-induced stereotypy
Vehicle or drug (5 dose levels) were administered p.o. to six groups of 6-8 male Sprague-Dawley rats (300-400 g) followed, 90 minutes later, by pCA (10 mg/kg i.p.). The animals were then placed in individual observation chambers and, 30 minutes after pCA administration, the intensity of the pCA-induced 5-HT syndrome was assessed according to the following scoring system: […]
Therefore, the maximum score for each animal was 10.
The inhibition of pCA induced stereotypy is calculated for each dose level as follows: [formula] where C=control group total score at 30 minutes post pCA.
T=group total score of treated group at 30 minutes post pCA.
For each dose a % effect is calculated.
The results obtained from the tests using 5 different dose levels of the drug allow the ED50 value (i.e. the dose required to produce 50% inhibition of pCA induced stereotypy) to be calculated.
The test was carried out using the free bases for compound C. Compound B was tested in the form of the succinate salt and the results corrected for amount of active material.

Experiment [8] has as its system 5-hydroxy-L-tryptophan induced behavioural syndrome. As to the kind of experiment: Potentiation of 5-hydroxytryptophan (5-HTP)-induced behaviour in rats. The format is in vivo, male Sprague-Dawley rats. The settings on record: Rattus norvegicus, po, 5-HTP 50 mg/kg s.c., citrate salt, corrected for amount of base. The procedure: The compound (C) was also tested for its ability to potentiate 5-hydroxy-L-tryptophan induced behavioural syndrome in rats. The test procedure is described below
Potentiation of 5-hydroxytryptophan (5-HTP)-induced behaviour
Groups of 10 male Sprague-Dawley rats (310-360 g) were dosed p.o. with vehicle or drugs. Ninety minutes later 5-HTP (50 mg/kg s.c.) was administered and the animals placed in individual observation chambers (peripheral decarboxylation was prevented by 25 mg/kg i.p. carbidopa administered 60 minutes before 5-HTP). Head shakes were counted over the period 30-45 minutes after 5-HTP and the intensity of the 5-HT syndrome was scored immediately afterwards using the system described for the pCA procedure above. Percentage potentiation of syndrome was calculated as follows: […]
Percentage potentiation was calculated from the following: [formula]

The values below come from patent US5212179A, “Piperidine derivatives” (John Wyeth and Brother Limited, priority 1980, dated 1993).

As usually defined, the inhibition in vivo is the change of the read-out against control, counted positive when it falls. One may read the ED50 as the midpoint of the dose-response relation. For orientation: IC50 means the concentration that gives 50% inhibition.

Consider `O=C(NC(=O)c1ccccc1)NC1CCN(Cc2ccc3ccccc3c2)CC1` [Example 1, 1-Benzoyl-3-[1-(naphth-2-ylmethyl)piperid-4-yl]urea], for which the inhibition in vivo at 50 mg/kg in experiment [1] stood at 67.5%. In experiment [2], the “potency ratio (imipramine=1.0)” value was 8.8. Moreover, the values for the ED50 in experiment [3] and in experiment [4] were 7.2 mg/kg and 5.3 mg/kg, respectively. Besides, the “Selectivity Ratio” value in experiment [5] (5-HT uptake relative to NA uptake) was determined as 455. Further, the IC50 in experiment [5] (37° C., 4 minutes) was determined as 0.044 µM; in experiment [6] it was 20 µM.
Turning to `O=C(NC(=O)c1ccccc1)NC1CCN(Cc2cccc3ccccc23)CC1` [Example 2, 1-Benzoyl-3-[1-(naphth-1-ylmethyl)piperid-4-yl]urea], at 50 mg/kg the inhibition in vivo in experiment [1] was 56.4%.
Compound `CC(C)c1ccc(CN2CCC(NC(=O)NC(=O)c3ccccc3)CC2)cc1` [Example 3, 1-Benzoyl-3-[1-(4-isopropylbenzyl)piperid-4-yl]urea] registered an inhibition in vivo at 50 mg/kg in experiment [1] of 49%.
On the same count and under the same terms, with `Cc1ccc(CN2CCC(NC(=O)NC(=O)c3ccccc3)CC2)cc1C` [Example 6, 1-Benzoyl-3-[1-(3,4-dimethylbenzyl)piperid-4-yl]urea] the figure was 68.9%; with `O=C(NC(=O)c1ccccc1)NC1CCN(Cc2ccc3c(c2)CCCC3)CC1` [Example 14, 1-Benzoyl-3-[1-(5,6,7,8-tetrahydro-naphth-2-ylmethyl)piperid-4-yl]urea], 69.4%.
The compound `CCc1ccc(CN2CCC(NC(=O)NC(=O)c3ccccc3)CC2)cc1` [Example 15, 1-Benzoyl-3-[1-(4-ethylbenzyl)piperid-4-yl]urea] had an inhibition in vivo at 50 mg/kg in experiment [1] of 72.9%.
The same measure, in the same setting: with `O=C(NC(=O)c1ccccc1)NC1CCN(Cc2ccc3c(c2)CCC3)CC1` [Example 20, 1-Benzoyl-3-[1-(indan-5-ylmethyl)-piperid-4-yl]urea] the figure was 59.3%.
`CC(c1ccc2ccccc2c1)N1CCC(NC(=O)NC(=O)c2ccccc2)CC1` (centres unmarked) [Example 21, 1-Benzoyl-3-[1-(1-(naphth-2-yl)ethyl)-piperid-4-yl]urea]: testing at 50 mg/kg in experiment [1] gave an inhibition in vivo of 71.7%.
Consider `O=C(NC(=O)c1cccnc1)NC1CCN(Cc2ccc3cc(F)ccc3c2)CC1` [Example 62, N[[[1-[(6-Fluoro-2-naphthalenyl)methyl]-4-piperidinyl]amino]carbonyl]-3-pyridinecarboxamide], for which the inhibition of syndrome in experiment [7] (At 50 mg/kg) is listed as 99%. Also, the 50% effective dose (ED50) in experiment [7] stood at 2.5 mg/kg; in experiment [8], 5 mg/kg. Also, in experiment [7], the “antagonism of pCA-induced stereotypy (in words)” value is recorded as “antagonised pCA-induced stereotypy in a dose-dependent manner”.
Consider `O=C(NC(=O)c1ccncc1)NC1CCN(Cc2ccc3cc(F)ccc3c2)CC1` [Example 63, N-[[[1-[(6-Fluoro-2-naphthalenyl)methyl]-4-piperidinyl]amino]carbonyl]-4-pyridinecarboxamide], for which, in experiment [7], the ED50 is 3.8 mg/kg and the “antagonism of pCA-induced stereotypy (in words)” value is on record as “antagonised pCA-induced stereotypy in a dose-dependent manner”.
As to `CN(C)CCCN1c2ccccc2CCc2ccc(Cl)cc21` [clomipramine, reference compound], the figures for the ED50 in experiment [3] and in experiment [4] were 18 mg/kg and 39.2 mg/kg, respectively.
In the case of `CN(C)CCCN1c2ccccc2CCc2ccccc21` [imipramine, reference compound], in experiment [2], the “potency ratio (imipramine=1.0)” value is on record as 1.0.
